Measured values taken from US20260284087A1, “USES OF CANNABIDIOL (CBD) AND ADVANCED METABOLIC SYNDROME” (THE REGENTS OF THE UNIVERSITY OF CALIFORNIA, priority 2022, published 2026).

Columns and labels:
[1] = tested on: Otsuka Long-Evans Tokushima Fatty (OLETF) rats; experiment: CBD effect on brown adipose tissue loss in OLETF rats with progressive MetS; assay type: in vivo, rat; details: 15-week-old OLETF rats, 200 mg CBD/kg oral gavage for 5 weeks; p<0.05; BAT estimated from 2-dimensional images (surface area)
Procedure: (§1) To assess the effects of a CBD on BAT loss associated with progressive MetS, a cohort of 15-week-old Otsuka Long-Evans Tokushima Fatty (OLETF) rats were administered 200 mg CBD/kg by oral gavage for 5 weeks. Animals were fed ad libitum and monitored in metabolic cages alongside vehicle-treated OLETF and lean strain control Long-Evans Tokushima Otsuka (LETO) rats. Brown adipose tissue content was estimated from 2-dimensional images to quantify surface area. The Otsuka Long-Evans Tokushima Fatty (OLETF) rat is a monogenic model of diet-induced obesity accelerated by a mutation in the CCK receptor. […] At >40 weeks of age, OLETF rats suffer from severe metabolic dysfunction and therefore serve as a model of aged, severe MetS.

[2] = tested on: Otsuka Long-Evans Tokushima Fatty (OLETF) rats; experiment: Plasma metabolomics in CBD-treated OLETF rats; assay type: in vivo, rat; details: OLETF vs. CBD, 200 mg CBD/kg oral gavage for 5 weeks, p<0.0001
Source text: FIGS. 2A-2C CBD increases BAIBA. A) Metabolomic map showing metabolites with p<0.05 after Student's t-test, representing mean plasma peak intensity fold-changes between groups in metabolites with q<0.2, for OLETF vs. CBD, B) top 5 metabolites, associated pathway and change directionality listed by lowest p-value for OLETF vs. CBD and C) raw mean peak area of BAIBA. *p<0.05 compared to LETO and †p<0.05 compared to OLETF by ANOVA with Tukey's HSD or student's t-test.
as §1

SMILES: C=C(C)[C@@H]1CCC(C)=C[C@H]1c1c(O)cc(CCCCC)cc1O [CBD, Cannabidiol]
- BAT masses preserved (of BAT lost in OLETF control) [1]: 55%
- increase in ß-aminoisobutyric acid (BAIBA) [2]: 2.1 fold
